Data: PubChem BioAssay AID2060487 (Molecular Pharmacology Branch, DTP, NCI, 2025)

Tested on: 997537-175-T-J1-PDC complex spheroid viability
Experiment: Anticancer human tumor 997537-175-T-J1-PDC patient-derived colon adenocarcinoma cell line growth inhibition [GQUAD]
Conditions: for IC50: curve of first compound; for viability, T/C: stronger effect = lower value; active = viability on the fitted dose curve at most 10% of control; inactive = the rest
Outline: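 Viability of tumor cells grown as complex spheroids with endothelial and stromal cells, exposed to drug combinations. Top concentration at or near clinical Cmax (else 10 microM), diluted in half-log increments.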

[1] = second compound 0.0316 µM, first compound 0.0316 µM
[2] = second compound 0.0316 µM, first compound 0.1 µM
[3] = second compound 0.0316 µM, first compound 0.316 µM
[4] = second compound 0.0316 µM, first compound 1 µM
[5] = second compound 0.0316 µM, first compound 3.16 µM
[6] = second compound 0.0316 µM, first compound 10 µM
[7] = second compound 0.1 µM, first compound 0.0316 µM
[8] = second compound 0.1 µM, first compound 0.1 µM
[9] = second compound 0.1 µM, first compound 0.316 µM
[10] = second compound 0.1 µM, first compound 1 µM
[11] = second compound 0.1 µM, first compound 3.16 µM
[12] = second compound 0.1 µM, first compound 10 µM
[13] = second compound 0.316 µM, first compound 0.0316 µM
[14] = second compound 0.316 µM, first compound 0.1 µM
[15] = second compound 0.316 µM, first compound 0.316 µM
[16] = second compound 0.316 µM, first compound 1 µM
[17] = second compound 0.316 µM, first compound 3.16 µM
[18] = second compound 0.316 µM, first compound 10 µM
[19] = second compound 1 µM, first compound 0.0316 µM
[20] = second compound 1 µM, first compound 0.1 µM
[21] = second compound 1 µM, first compound 0.316 µM
[22] = second compound 1 µM, first compound 1 µM
[23] = second compound 1 µM, first compound 3.16 µM
[24] = second compound 1 µM, first compound 10 µM
[25] = second compound 3.16 µM, first compound 0.0316 µM
[26] = second compound 3.16 µM, first compound 0.1 µM
[27] = second compound 3.16 µM, first compound 0.316 µM
[28] = second compound 3.16 µM, first compound 1 µM
[29] = second compound 3.16 µM, first compound 3.16 µM
[30] = second compound 3.16 µM, first compound 10 µM
[31] = second compound 10 µM, first compound 0.0316 µM
[32] = second compound 10 µM, first compound 0.1 µM
[33] = second compound 10 µM, first compound 0.316 µM
[34] = second compound 10 µM, first compound 1 µM
[35] = second compound 10 µM, first compound 3.16 µM
[36] = second compound 10 µM, first compound 10 µM
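Also: spheroids exposed to the agents for 7 days.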
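For viability, T/C in this document: 100% = DMSO vehicle control viability.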

COc1cccc2c1C(=O)c1c(O)c3c(c(O)c1C2=O)CC(O)(C(=O)CO)CC3OC1CC(N)C(O)C(C)O1 (stereo not drawn) + Cc1[nH]c2ccc(F)cc2c1-c1nc2c3cccnc3c3ncccc3c2[nH]1
8.04 µM: IC50 (second compound 0.316 µM)
8.48 µM: IC50 (second compound 1 µM)
inactive: viability, T/C [1] 97.6% | viability, T/C [2] 82.8% | viability, T/C [3] 101% | viability, T/C [4] 97.7% | viability, T/C [5] 95.5% | viability, T/C [6] 51.1% | viability, T/C [7] 80.7% | viability, T/C [8] 78% | viability, T/C [9] 95.4% | viability, T/C [10] 91.7% | viability, T/C [11] 96.9% | viability, T/C [12] 49.2% | viability, T/C [13] 101% | viability, T/C [14] 83.3% | viability, T/C [15] 80.7% | viability, T/C [16] 96.9% | viability, T/C [17] 79.8% | viability, T/C [18] 43.1% | viability, T/C [19] 76.2% | viability, T/C [20] 91.3% | viability, T/C [21] 92.7% | viability, T/C [22] 85.4% | viability, T/C [23] 80.3% | viability, T/C [24] 44.9% | viability, T/C [25] 74% | viability, T/C [26] 64.4% | viability, T/C [27] 84.1% | viability, T/C [28] 83.6% | viability, T/C [29] 95.1% | viability, T/C [30] 31.4% | viability, T/C [31] 67.6% | viability, T/C [32] 86.5% | viability, T/C [33] 94.1% | viability, T/C [34] 88.7% | viability, T/C [35] 66.7% | viability, T/C [36] 33.2%
9.79 µM: IC50 (second compound 0.1 µM)
> 10 µM: IC50 (second compound 0.0316 µM)
5.6 µM: IC50 (second compound 10 µM)
6.46 µM: IC50 (second compound 3.16 µM)

CC1COCCN1c1cc(C2(O)CC3CCC(C2)O3)c2cnn(-c3ccn[nH]3)c2n1 (stereo not drawn) + Cc1[nH]c2ccc(F)cc2c1-c1nc2c3cccnc3c3ncccc3c2[nH]1
0.355 µM: IC50 (second compound 0.1 µM)
< 0.0316 µM: IC50 (second compound 3.16 µM)
0.155 µM: IC50 (second compound 1 µM)
0.0746 µM: IC50 (second compound 10 µM)
inactive: viability, T/C [1] 74.3% | viability, T/C [2] 56.8% | viability, T/C [3] 62.4% | viability, T/C [4] 22.3% | viability, T/C [5] 40.2% | viability, T/C [6] 56% | viability, T/C [7] 75.3% | viability, T/C [8] 59.5% | viability, T/C [9] 57.9% | viability, T/C [10] 32.7% | viability, T/C [11] 45.4% | viability, T/C [12] 52.7% | viability, T/C [13] 78.7% | viability, T/C [14] 61.9% | viability, T/C [15] 45.5% | viability, T/C [16] 38.6% | viability, T/C [17] 54% | viability, T/C [18] 60.4% | viability, T/C [19] 54.7% | viability, T/C [20] 57.6% | viability, T/C [21] 44.9% | viability, T/C [22] 40.8% | viability, T/C [23] 38.7% | viability, T/C [24] 61.4% | viability, T/C [25] 55.1% | viability, T/C [26] 34.3% | viability, T/C [27] 44% | viability, T/C [28] 29.2% | viability, T/C [29] 44.5% | viability, T/C [30] 60.4% | viability, T/C [31] 61.2% | viability, T/C [32] 44.8% | viability, T/C [33] 42.5% | viability, T/C [34] 43.6% | viability, T/C [35] 31.9% | viability, T/C [36] 41.3%
0.305 µM: IC50 (second compound 0.316 µM)
0.303 µM: IC50 (second compound 0.0316 µM)

COc1cc(C2c3cc4c(cc3C(OC3OC5COC(C)OC5C(O)C3O)C3COC(=O)C23)OCO4)cc(OC)c1O (stereo not drawn) + CN(C)c1ccc(Nc2c3ccc(NC(=O)CCN4CCCC4)cc3nc3cc(NC(=O)CCN4CCCC4)ccc23)cc1
> 10 µM: IC50 (second compound 0.0316 µM) | IC50 (second compound 0.1 µM) | IC50 (second compound 0.316 µM) | IC50 (second compound 1 µM) | IC50 (second compound 3.16 µM) | IC50 (second compound 10 µM)
inactive: viability, T/C [1] 93.8% | viability, T/C [2] 105% | viability, T/C [3] 96.5% | viability, T/C [4] 78.6% | viability, T/C [5] 74.1% | viability, T/C [6] 74.7% | viability, T/C [7] 113% | viability, T/C [8] 105% | viability, T/C [9] 101% | viability, T/C [10] 81.2% | viability, T/C [11] 95.2% | viability, T/C [12] 65.7% | viability, T/C [13] 97.2% | viability, T/C [14] 96.6% | viability, T/C [15] 91.4% | viability, T/C [16] 87.1% | viability, T/C [17] 92.3% | viability, T/C [18] 64.8% | viability, T/C [19] 89.1% | viability, T/C [20] 110% | viability, T/C [21] 90.2% | viability, T/C [22] 75.1% | viability, T/C [23] 91.2% | viability, T/C [24] 55.2% | viability, T/C [25] 78.7% | viability, T/C [26] 102% | viability, T/C [27] 76.7% | viability, T/C [28] 95.2% | viability, T/C [29] 83.2% | viability, T/C [30] 72.3% | viability, T/C [31] 79.7% | viability, T/C [32] 108% | viability, T/C [33] 99.9% | viability, T/C [34] 87.2% | viability, T/C [35] 89.8% | viability, T/C [36] 67.4%

O=C(NO)c1cnc(N2CCN(S(=O)(=O)c3ccc4ccccc4c3)CC2)nc1 + Cc1cnc(CNC(=O)c2c(=O)c3ccc(N4CCCN(C)CC4)nc3n3c2sc2ccccc23)cn1
1.84 µM: IC50 (second compound 3.16 µM)
1.62 µM: IC50 (second compound 10 µM)
2.11 µM: IC50 (second compound 0.1 µM)
4.01 µM: IC50 (second compound 0.316 µM)
1.96 µM: IC50 (second compound 1 µM)
1.93 µM: IC50 (second compound 0.0316 µM)
inactive: viability, T/C [1] 107% | viability, T/C [2] 92.3% | viability, T/C [3] 96.3% | viability, T/C [4] 81.2% | viability, T/C [5] 26.8% | viability, T/C [7] 105% | viability, T/C [8] 97% | viability, T/C [9] 80.7% | viability, T/C [10] 69% | viability, T/C [11] 41.7% | viability, T/C [13] 94.7% | viability, T/C [14] 100% | viability, T/C [15] 85.6% | viability, T/C [16] 73.2% | viability, T/C [17] 69.8% | viability, T/C [19] 83.9% | viability, T/C [20] 90% | viability, T/C [21] 104% | viability, T/C [22] 93% | viability, T/C [23] 19.4% | viability, T/C [25] 104% | viability, T/C [26] 116% | viability, T/C [27] 93.5% | viability, T/C [28] 83.2% | viability, T/C [29] 21.4% | viability, T/C [31] 108% | viability, T/C [32] 88.7% | viability, T/C [33] 103% | viability, T/C [34] 77.5% | viability, T/C [35] 11.4%
active: viability, T/C [6] 0.4% | viability, T/C [12] 0.47% | viability, T/C [18] 0.31% | viability, T/C [24] 0.31% | viability, T/C [30] 1.15% | viability, T/C [36] 0.29%
